Patent publication US20210177803A1, “NEW PHARMACEUTICAL USE FOR THE TREATMENT OF HEART FAILURE” (Novartis AG, priority 2018, published 2021)
Read-outs that look alike come from different tables or passages of the source.

Key:
[1] = test system: patients with HFrEF following hemodynamic stabilization after an episode of ADHF; conditions: for Patients with ≥1 AE: full analysis set;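 as to all read-outs here: adverse events recorded in patients during the 10-week treatment phase following randomization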
[2] = test system: patients hospitalized for acute HFrEF; test: PIONEER-HF study: clinical outcomes; format: in vivo, human
Method: The study rational and design is described in by Velazquez E J, et al. .in Am.
The starting dose and all subsequent doses were selected to optimize the highest tolerated dose based on a systolic blood pressure (SBP) algorithm.
Inclusion Criteria: • Patients ≥18 y of age with the capacity to provide written informed consent. • Currently hospitalized for a primary diagnosis of HF, including symptoms and signs of fluid overload. • Eligible patients will be randomized no earlier than 24 hours and up to ten days after presentation while still hospitalized as long as meet the following definition of stable status: • SBP≥100 mm Hg for the preceding 6 hours prior to randomization; no symptomatic hypotension • No increase (intensification) in i.v. diuretic dose within last 6 hours prior to randomization • No i.v. inotropic drugs for 24 hours prior to randomization • No i.v. vasodilators including nitrates within last 6 hours prior to randomization • Left ventricular EF 40% within the past 6 m (including current hospitalization) using echocardiography, multi gated acquisition scan (MUGA), CT scanning, MRI or ventricular angiography, provided no subsequent study documented an EF of >40% • Elevated NT-proBNP≥1600 pg/mL OR BNP≥400 pg/mL during current hospitalization.

[3] = test system: ambulatory HF patients with an ejection fraction ≤40%; conditions: compared with enalapril; cited from earlier work
[4] = not naive to ACEI/ARB (N = 665)
[5] = post-discharge, N = 496, 10-week treatment epoch
[6] = post-discharge, N = 496, 10-week treatment period
[7] = pre-discharge, N = 497, 10-week treatment epoch
[8] = pre-discharge, N = 497, 10-week treatment period
[9] = previous diagnosis of HFrEF (N = 705)
[10] = 8 weeks, LCZ696 n = 440, enalapril n = 441
[11] = compared with enalapril, 8-week study period

## CCCCC(=O)N(Cc1ccc(-c2ccccc2-c2nn[n-]n2)cc1)[C@H](C(=O)[O-])C(C)C.CCOC(=O)[C@H](C)C[C@@H](Cc1ccc(-c2ccccc2)cc1)NC(=O)CCC(=O)[O-].[Na+].[Na+].[Na+] [LCZ696, trisodium [3((1S,3R)-1-biphenyl-4-ylmethyl-3-ethoxycarbonyl-1-butylcarbamoyl) propionate-(S)-3′-methyl-2′-(pentanoyl{2″-(tetrazol-5-ylate)biphenyl-4′-ylmethyl}amino)butyrate]hemipentahydrate]
[1]; both arms
  Deaths attributed to the study treatment by the investigator: None
[1]; both treatment groups
  SAE hyperkalemia, patients: < 1%
  SAE hypotension, patients: < 1%
[1]; de novo HFrEF (N = 286)
  AE of interest: Blood creatinine increased: 3 (1.0) n (%)
  AE of interest: Cardiac failure: 13 (4.5) n (%)
  AE of interest: Hyperkalemia: 24 (8.4) n (%)
  AE of interest: Hypotension: 26 (9.1) n (%)
  AE of interest: Renal failure: 3 (1.0) n (%)
  AE of interest: Renal impairment: 8 (2.8) n (%)
  At least one AE: 178 (62.2) n (%)
  At least one serious AE: 33 (11.5) n (%)
  Death: 1 (0.3) n (%)
  Treatment interruption due to AE: 22 (7.7) n (%)
[1]; initiated post-discharge (text, secondary endpoint)
  Rate of permanent discontinuation of study drug due to AEs: 3.5%
[1]; initiated pre-discharge (text, secondary endpoint)
  Rate of permanent discontinuation of study drug due to AEs: 4.5%
[1]; naive to ACEI/ARB (N = 326)
  AE of interest: Blood creatinine increased: 6 (1.8) n (%)
  AE of interest: Cardiac failure: 17 (5.2) n (%)
  AE of interest: Hyperkalemia: 20 (7.1) n (%)
  AE of interest: Hypotension: 29 (8.9) n (%)
  AE of interest: Renal failure: 6 (1.8) n (%)
  AE of interest: Renal impairment: 8 (2.5) n (%)
  At least one AE: 210 (64.4) n (%)
  At least one serious AE: 47 (14.4) n (%)
  Treatment interruption due to AE: 32 (9.8) n (%)
[1]; [4]
  AE of interest: Blood creatinine increased: 23 (3.5) n (%)
  AE of interest: Cardiac failure: 54 (8.1) n (%)
  AE of interest: Hyperkalemia: 86 (12.9) n (%)
  AE of interest: Hypotension: 79 (11.9) n (%)
  AE of interest: Renal failure: 13 (2.0) n (%)
  AE of interest: Renal impairment: 32 (4.8) n (%)
  At least one AE: 446 (67.1) n (%)
  At least one serious AE: 116 (17.4) n (%)
  Treatment interruption due to AE: 77 (11.8) n (%)
[1]; post-discharge arm
  Mortality, patients who died: 2.0%
[1]; post-discharge group
  AE cardiac failure, patients: 8.5%
  AE dizziness, patients: 4.2%
  AE hyperkalemia, patients: 11.3%
  AE hypotension, patients: 9.1%
  Patients with SAEs: 17.7%
  SAE acute kidney injury, patients: 1.4%
  SAE cardiac failure, patients: 7.7%
[1]; post-discharge, N = 496
  Permanent treatment discontinuation due to SAEs: 13 (2.6) n (%)
  Permanent treatment discontinuation due to non-SAEs: 7 (1.4) n (%)
  Serious adverse event: Acute kidney injury: 7 (1.4) n (%)
  Serious adverse event: Atrial fibrillation: 4 (0.8) n (%)
  Serious adverse event: Cardiac failure(acute/chronic): 38 (7.7) n (%)
  Serious adverse event: Chronic obstructive pulmonary disease: 4 (0.8) n (%)
  Serious adverse event: Hyperkalemia: 2 (0.4) n (%)
  Serious adverse event: Hypotension: 2 (0.4) n (%)
  Serious adverse event: Non-cardiac chest pain: 3 (0.6) n (%)
  Serious adverse event: Pneumonia: 3 (0.6) n (%)
  Serious adverse event: Pulmonary edema: 2 (0.4) n (%)
  Serious adverse event: Renal failure: 1 (0.2) n (%)
  Serious adverse event: Respiratory tract infection: 3 (0.6) n (%)
  Serious adverse event: Ventricular tachycardia: 0 (0.0) n (%)
  Temporary treatment interruption due to AEs: 55 (11.1) n (%)
  Temporary treatment interruption due to SAEs: 18 (3.6) n (%)
  Temporary treatment interruption due to non-SAEs: 42 (8.5) n (%)
[1]; [5]
  Adverse event: Cardiac failure: 42 (8.5) n (%)
  Adverse event: Diarrhea: 23 (4.6) n (%)
  Adverse event: Dizziness: 21 (4.2) n (%)
  Adverse event: Hyperkalemia: 56 (11.3) n (%)
  Adverse event: Hypotension: 45 (9.1) n (%)
  Adverse event: Peripheral edema: 24 (4.8) n (%)
  Adverse event: Renal impairment: 15 (3.0) n (%)
  Adverse event: Urinary tract infection: 15 (3.0) n (%)
[1]; [6]
  Deaths: 10 (2.0) n (%)
  Patients with ≥ SAE / at least one SAE: 88 (17.7) n (%)
  Patients with ≥1 AE: 323 (65.1) n (%)
[1]; post-discharge, N = 496, full analysis set
  Permanent treatment discontinuation due to AEs: 20 (4.0) n (%)
[1]; pre- vs post-discharge
  RRR, permanent discontinuation due to AEs: 1.287
[1]; pre-discharge arm
  Mortality, patients who died: 2.6%
[1]; pre-discharge group
  AE cardiac failure, patients: 6.8%
  AE dizziness, patients: 5.6%
  AE hyperkalemia, patients: 11.1%
  AE hypotension, patients: 12.3%
  Patients with SAEs: 18.9%
  SAE acute kidney injury, patients: 1.2%
  SAE cardiac failure, patients: 7.0%
[1]; pre-discharge, N = 497
  Permanent treatment discontinuation due to SAEs: 15 (3.0) n (%)
  Permanent treatment discontinuation due to non-SAEs: 8 (1.6) n (%)
  Serious adverse event: Acute kidney injury: 6(1.2) n (%)
  Serious adverse event: Atrial fibrillation: 3 (0.6) n (%)
  Serious adverse event: Cardiac failure(acute/chronic): 35 (7.0) n (%)
  Serious adverse event: Chronic obstructive pulmonary disease: 0 (0.0) n (%)
  Serious adverse event: Hyperkalemia: 3 (0.6) n (%)
  Serious adverse event: Hypotension: 4 (0.8) n (%)
  Serious adverse event: Non-cardiac chest pain: 0 (0.0) n (%)
  Serious adverse event: Pneumonia: 4 (0.8) n (%)
  Serious adverse event: Pulmonary edema: 3 (0.6) n (%)
  Serious adverse event: Renal failure: 3 (0.6) n (%)
  Serious adverse event: Respiratory tract infection: 0 (0.0) n (%)
  Serious adverse event: Ventricular tachycardia: 3 (0.6) n (%)
  Temporary treatment interruption due to AEs: 70 (14.1) n (%)
  Temporary treatment interruption due to SAEs: 21 (4.2) n (%)
  Temporary treatment interruption due to non-SAEs: 54 (10.9) n (%)
[1]; [7]
  Adverse event: Cardiac failure: 34 (6.8) n (%)
  Adverse event: Diarrhea: 12 (2.4) n (%)
  Adverse event: Dizziness: 28 (5.6) n (%)
  Adverse event: Hyperkalemia: 55 (11.1) n (%)
  Adverse event: Hypotension: 61(12.3) n (%)
  Adverse event: Peripheral edema: 17 (3.4) n (%)
  Adverse event: Renal impairment: 25 (5.0) n (%)
  Adverse event: Urinary tract infection: 20 (4.0) n (%)
[1]; [8]
  Deaths: 13 (2.6) n (%)
  Patients with ≥ SAE / at least one SAE: 94 (18.9) n (%)
  Patients with ≥1 AE: 338 (68.0) n (%)
[1]; pre-discharge, N = 497, full analysis set
  Permanent treatment discontinuation due to AEs: 22 (4.4) n (%)
[1]; [9]
  AE of interest: Blood creatinine increased: 26 (3.7) n (%)
  AE of interest: Cardiac failure: 58 (8.2) n (%)
  AE of interest: Hyperkalemia: 85 (12.1) n (%)
  AE of interest: Hypotension: 108 (10.9) n (%)
  AE of interest: Renal failure: 16 (2.3) n (%)
  AE of interest: Renal impairment: 32 (4.5) n (%)
  At least one AE: 478 (67.8) n (%)
  At least one serious AE: 130 (18.4) n (%)
  Death: 5 (0.7) n (%)
  Treatment interruption due to AE: 87 (12.3) n (%)
[2]; [10]
  Additional HF drug: 75 (17.0) number (%)
  Composite (death, rehospitalization for HF, LVAD implantation, or listing for cardiac transplant): 41 (9.3) number (%)
  Death: 10 (2.3) number (%)
  Expanded composite (composite plus unplanned outpatient visits requiring IV diuretics, or increase >50% in diuretic dose): 262 (59.5) number (%)
  HF rehospitalization: 35 (8.0) number (%)
  Increase in diuretic dose >50%: 242 (55.0) number (%)
  LVAD implantation: 1 (0.2) number (%)
  Listing for cardiac transplant: 0 (0.0) number (%)
  Unplanned outpatient visits requiring intravenous diuretics: 2 (0.5) number (%)
[2]; LCZ696 vs. Enalapril
  Additional HF drug, HR (95% CI): 0.89 (0.65, 1.22)
  Death, HR (95% CI): 0.66 (0.30, 1.48)
  Expanded composite, HR (95% CI): 0.409
  HF rehospitalization, HR (95% CI): 0.56 (0.37, 0.84)
  Increase in diuretic dose >50%, HR (95% CI): 0.84 (0.84, 1.21)
  LVAD implantation, HR (95% CI): 0.99 (0.06, 15.97)
  Unplanned outpatient visits requiring intravenous diuretics, HR (95% CI): 1.00 (0.14, 7.07)
[2]; [11]
  Absolute risk reduction, clinical composite: 7.5%
  Relative risk reduction, clinical composite: 44.6%
[3]
  Relative risk reduction in cardiovascular mortality and hospitalization for worsening HF: 20%
